Data reported in US20220110902A1, “Methods of treating amyloid-beta peptide diseases” (Ecole Polytechnique Federale de Lausanne, priority 2016, published 2022).

Key:
SH-SY5Y(APPSwe) cells = experiment: Western-blot and transcript analysis in SH-SY5Y(APPSwe) cells; format: cell-based, human; conditions: NR 1 mM
Experimental: Human: Total RNA was extracted using guanidine-isothiocyanate lysis (PureLink, Ambion, Waltham, Mass.) from cortex samples, and RNA integrity and concentration was verified using Bioanalysis (Agilent, Santa Clara, Calif.). Samples were randomized based on diagnostic group and assayed in triplicate on a real-time PCR cycler (ABI 7500, Applied Biosystems, Foster City) in 96-well optical plates. qPCR was performed using Taqman hydrolysis probe primer sets (Applied Biosystems) specific for the following human transcripts: HSPA9, HSPD1, YMEIL1, DNM1L, BECN1, SQSTM1, PARK2, COX5A, CYC1. A primer set specific for human GAPDH was used as a control housekeeping transcript. For the APPSwe-expressing SH-SY5Y cell line, total RNA was extracted […] using TriPure RNA isolation reagent, and expression of selected transcripts was analyzed using the LightCycler480 system (Roche) and LightCycler® 480 SYBR Green I Master reagent (Roche). The GAPDH gene was used as housekeeping reference. The ddCT method was employed to determine relative levels of each amplicon. […] The SH-SY5Y neuroblastoma cell line expressing the APP Swedish K670N/M671L double mutation (APPSwe) was a kind gift of Prof. Cedazo-Minguez (Karolinska Institute, Sweden). Cells were grown in DMEM/F-12, supplemented with 10% fetal bovine serum (FBS, Gibco), GlutaMAX (100×, Gibco) and penicillin/streptomycin (1×, Gibco). Cells were selected in 4 μg/mL Geneticin® Selective Antibiotic (G418 Sulfate, Sigma) and grown for three generations before experiments with cells plated and passaged at 4×10^3 cells/ml and 60% confluence, respectively. Cells were cultured at 37° C. under a 5% CO2 atmosphere and tested for mycoplasma using Mycoprobe (#CUL001B, R&D systems) following the manufacturer's instructions. Cells were treated with 10 μg/mL dox, NR 1 or 3 mM, ISRIB 0.5 μM (Sigma), as indicated for 24 hours before cell harvesting or fixation. For the immunostaining, cells were fixed with 1× Formal-Fixx (Thermo Scientific) for 15 min. […]

old C57BL/6J mice = experiment: NR treatment of aged C57BL/6J mice: muscle amyloid, Oxphos proteins, MSR; format: in vivo, mouse
Experimental: Young (1 month old) and aged (20-24 months old) C57BL/6JRj mice were purchased from Janvier Labs. APP/PSEN1 mice (Tg(APPswe,PSEN1dE9)85Dbo/Mmjax) were purchased from JAX. C57BL/6JR mice were fed with pellets containing vehicle or NR (400 mg/kg/day) for 6-8 weeks, while APP/PSEN1 mice were fed NR pellets for 10 weeks, starting at the age of 4 months. The pellets were prepared by mixing powdered chow diet (20165, Harlan Laboratories) with water or with NR dissolved in water. Pellets were dried under a laminar flow hood for 48 hours. Mice were housed by groups of 2 to 5 animals per cage and randomized to 7-8 animals per experimental group according to their body weight. No blinding was used during the experiment procedures. Mouse: Total RNA was extracted from tissues using TriPure RNA isolation reagent (Roche) according to the product manual. Expression of selected genes was analyzed using the LightCycler480 system (Roche) and LightCycler® 480 SYBR Green I Master reagent (Roche). The beta-2-Microglobulin B2m gene was used as housekeeping reference. Mouse: Frozen cortex tissue samples were lysed by mechanical homogenization with RIPA buffer containing protease and phosphatase inhibitors, and analyzed by SDS-PAGE and western blot. Subsequently, the concentration of extracted protein was determined by using the Bio-Rad Protein Assay. Proteins were detected using the following antibodies: HSP60 (Enzo Life Science), CLPP (Sigma), anti-GAPDH (14C10) (Cell Signaling), LONP1 (Sigma), PINK1 (Novus Biologicals), LC3 A/B (Cell Signaling), SDHB (Oxphos cocktail, Abcam), MTCO1 (Abcam), Ubiquitin (Enzo), P62 (BD Transduction Laboratories), Phopsho P62 (Cell Signaling), VDAC (Abcam), β-Amyloid, 17-24 (4G8) (BioLegend). In addition to the housekeeping proteins, loading was monitored by Ponceau Red to ensure a homogeneous loading. Antibody detection reactions for all the immunoblot experiments were developed by enhanced chemiluminescence (Advansta) and imaged using the c300 imaging system (Azure Biosystems). Pixel intensity was quantified by using ImageJ software. […]

old mice = experiment: Myriocin treatment of aged mice: muscle function and amyloid deposits; format: in vivo, mouse; conditions: 0.4 mg/kg intra peritoneal injection for 8 weeks
Source text: FIG. 14A is a graph showing that inhibition of ceramide synthesis resolves Aβ proteotoxic stress in human cells. […] (FIG. 14C) Myriocin, administered as described in FIG. 14B, improves grip strength, exercise capacity (distance run), balance (latency square in beamwalk), and movement coordination (rotarod latency) in old mice. (FIG. 14D) Myriocin treatment reduces amyloid deposits, as shown by immunodetection with Thioflavin S (ThS), in the muscle tissues of old mice.

SMILES | MSR transcript levels (SH-SY5Y(APPSwe) cells; 24 h, dox 10 μg/mL) | oxidative phosphorylation (OXPHOS) protein levels (SH-SY5Y(APPSwe) cells; Western-blot) | SDHB and MTCO1 protein levels in muscle (old C57BL/6J mice; aged mice, NR 400 mg/kg/day for 6-8 weeks) | A11- and 4G8 positive amyloid-like deposits in TA and forelimbs muscle (old C57BL/6J mice; old mice, NR 400 mg/kg/day in pellets for 6-8 weeks) | expression of MSR signature genes in muscle (old C57BL/6J mice; quadriceps, NR 400 mg/kg/day for 6-8 weeks) | balance (latency square in beamwalk) (old mice; mice 18 months or older) | exercise capacity (distance run) (old mice; mice 18 months or older) | grip strength (old mice; mice 18 months or older) | movement coordination (rotarod latency) (old mice; mice 18 months or older) | amyloid deposits in muscle tissues, Thioflavin S (ThS) (old mice; old mice)
NC(=O)c1ccc[n+]([C@@H]2O[C@H](CO)[C@@H](O)[C@H]2O)c1 [NR, Nicotinamide Riboside triflate] | increased | increases | partially restoring | marked reduction | increasing |  |  |  |  | 
CCCCCCC(=O)CCCCCC/C=C/C[C@@H](O)[C@H](O)[C@@](N)(CO)C(=O)O [Myriocin, (E,2S,3R,4R)-2-amino-3,4-dihydroxy-2-(hydroxymethyl)-14-oxoicos-6-enoic acid] |  |  |  |  |  | improves | improves | improves | improves | reduces
